Data from patent publication US12358875B2, “N-(phenyl)-indole-3-sulfonamide derivatives and related compounds as GPR17 modulators for treating CNS disorders such as multiple sclerosis” (UCB Pharma GMBH, priority 2019, dated 2025).
Blank lines part the entries; values can stand above or below the compound they belong to.

Key:
GPR17 [1] = biological target: T1, GPR17 (Homo sapiens, UniProt Q13304); conditions: WO 2005/103291; cited from earlier work
Target sequence in this assay (Q13304 whole entry, species assumed): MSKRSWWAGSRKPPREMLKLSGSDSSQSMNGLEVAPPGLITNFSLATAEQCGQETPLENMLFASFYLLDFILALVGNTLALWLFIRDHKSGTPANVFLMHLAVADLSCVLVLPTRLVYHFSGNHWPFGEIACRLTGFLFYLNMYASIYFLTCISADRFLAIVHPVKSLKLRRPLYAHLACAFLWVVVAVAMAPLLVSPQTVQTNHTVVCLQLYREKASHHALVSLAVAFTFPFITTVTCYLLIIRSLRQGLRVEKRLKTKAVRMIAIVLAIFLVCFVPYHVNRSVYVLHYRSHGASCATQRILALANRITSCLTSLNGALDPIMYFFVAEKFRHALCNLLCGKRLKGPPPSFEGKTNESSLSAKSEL

GPR17 [2] = biological target: T1, GPR17; test: Calcium mobilization functional assay (Ca2+ assay), inhibition of MDL29,951 response in CHO hGPR17; assay type: cell-based; parameters: host or cells: Flp-In T-REx CHO; conditions: CHO hGPR17, 50 nM MDL29,951 agonist; read-out: Ca^2+ assay pIC50 (converted)
Method: (§1) Flp-In T-REx CHO cells stably expressing human GPR17 receptor (CHO hGPR17) from Evi Kostenis' lab (Bonn University, Germany) were cultured at 37° C. in a humidified atmosphere of 5% CO2. Cells were grown in DMEM with Nutrient Mixture F-12 supplemented with hygromycin B (500 μg/ml) and blasticidin (30 μg/ml). Expression from the Flp-In locus was induced by treatment with doxycycline (1 μg/ml) for 16-20 h prior assays.
GPR17 is a G-protein coupled receptor. GPR17 activation triggers Gq-type G-protein signaling resulting in endoplasmic reticulum calcium (Ca^2+) stores release in cytosol which can be measured using Calcium 5 dye, a fluorescent indicator dye of cytosolic Ca^2+ levels. The compounds of the present invention were assessed either in the Ca^2+ assay or in the GPR17 cAMP assay, described further below.
CHO hGPR17 were defrosted and seeded at a density of 20,000 cells per well into black 384-well plates with clear bottom. Cells were incubated overnight at 37° C. in a humidified atmosphere of 5% CO2. […] Fluorescent signal relative to cytosolic Ca^2+ concentration was recorded over time at room temperature in FLIPR Tetra reader. […] Inhibitory effects of varying concentrations test compounds were measured and resulting pIC50s were determined. […]
Target sequence in this assay (Q13304 29-367 limits assumed): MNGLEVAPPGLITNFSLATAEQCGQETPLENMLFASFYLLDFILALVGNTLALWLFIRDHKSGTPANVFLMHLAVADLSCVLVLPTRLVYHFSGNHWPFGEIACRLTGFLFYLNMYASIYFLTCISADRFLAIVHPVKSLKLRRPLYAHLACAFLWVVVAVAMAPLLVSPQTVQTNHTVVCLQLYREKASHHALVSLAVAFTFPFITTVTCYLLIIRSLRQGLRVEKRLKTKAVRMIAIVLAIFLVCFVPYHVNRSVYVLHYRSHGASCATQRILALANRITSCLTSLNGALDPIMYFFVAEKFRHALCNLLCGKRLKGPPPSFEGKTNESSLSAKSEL

GPR17 [3] = biological target: T1, GPR17; test: cAMP accumulation functional assay (HTRF), Schild analysis against MDL29,951 in CHO hGPR17; assay type: cell-based; parameters: host or cells: Flp-In T-REx CHO; conditions: CHO hGPR17, Schild analysis vs MDL29,951, 5 μM forskolin; read-out: cAMP assay pA2 (converted)
Method: as §1
Target sequence in this assay (Q13304 29-367 limits assumed): as above
GPR17 activation can also recruit Gi-type G-protein signaling, resulting in a decrease of intracellular cyclic adenosine monophosphate (cAMP). Intracellular cAMP changes can be measured using the HTRF cAMP dynamic assay kit from CisBio (Codolet, France). Using homogenous time-resolved fluorescence technology (HTRF), the assay is based on competition between native cAMP produced by cells and cAMP labelled with the dye d2. The tracer binding was determined by an anti-cAMP antibody labeled with cryptate.
CHO hGPR17 were detached with PBS containing EDTA and dispatched in black 384-well plates with 5,000 cells per well. Cells were first incubated for 30 minutes at room temperature in HBSS Hepes (pH 7.4) containing vehicle or varying concentrations of test GPR17 antagonist/inverse agonist compounds. Then, a dose response curve of MDL29,951 GPR17 agonist (typically from 10^−5M to 10^−10M) was added on vehicle and on each test GPR17 antagonist/inverse agonist compound concentration in a final volume of 20 μL HBSS Hepes buffer (pH 7.4) containing 1% DMSO, 5 μM forskolin and 0.1 mM IBMX. After 60 minutes incubation at room temperature, the reaction is terminated and the cells lysed by adding the d2 detection reagent and the cryptate reagent in 10 μL lysis buffer each according to manufacturer's instructions. After 60 minutes incubation, changes in cAMP concentrations are measured according to manufacturer's instructions using an Envision plate reader with laser excitation. All incubations were performed in duplicate. Data was analyzed using GraphPad Prism software using the 4-parameter logistic equation to measure MDL29,951 pEC50s in absence and presence of GPR17 antagonist/inverse agonist test compounds. Dose ratio (DR) were plotted against antagonist concentrations and Schild analysis provided estimated affinity pA2 of GPR17 antagonist/inverse agonist test compounds.
The activities of the Example compounds tested are depicted in the table below. The activity ranges A, B and C refer to pA2 values in the cAMP assay as follows: “A”: pA2 6.5≤x<7.5, “B”: pA2 7.5≤x<8.5, “C”: 8.5≤pA2.

- IC50 (GPR17 [2]): 31.6 to 316 nM
SMILES: COc1nc(NS(=O)(=O)c2cn(C)c3cc(Cl)ccc23)c(F)cc1Cl [Example I-2, 6-chloro-N-(5-chloro-3-fluoro-6-methoxypyridin-2-yl)-1-methylindole-3-sulfonamide]

- Kb (GPR17 [3]): ≤ 3.16 nM
SMILES: COc1nc(OC(F)F)c(F)cc1NS(=O)(=O)c1cn(CCO)c2nc(Cl)ccc12 [Example I-35, 6-chloro-N-[6-(difluoromethoxy)-5-fluoro-2-methoxypyridin-3-yl]-1-(2-hydroxyethyl)pyrrolo[2,3-b]pyridine-3-sulfonamide]

- Kb (GPR17 [3]): 31.6 to 316 nM
SMILES: [N-]=[N+]=NCCn1cc(S(=O)(=O)Nc2cc(F)c(Br)cc2F)c2ccc(Cl)cc21 [Example I-36, 1-(2-azidoethyl)-N-(4-bromo-2,5-difluorophenyl)-6-chloroindole-3-sulfonamide]

The remaining lines, values behind:

SMILES: NCC(=O)CCC(=O)O [Example 5-ALA, 5 amino levulinic acid]
- amounts needed in the assays (GPR17 activation) (GPR17 [1]): three digit micromolar range

SMILES: Cn1cc(S(=O)(=O)Nc2ccc(C#N)cc2F)c2ccc(Cl)cc21 [Example I-1, 6-chloro-N-(4-cyano-2-fluorophenyl)-1-methylindole-3-sulfonamide]
- IC50 (GPR17 [2]): 31.6 to 316 nM

SMILES: NCc1[nH]cc(CCC(=O)O)c1CC(=O)O [PBG, porphobilinogen]
- amounts needed in the assays (GPR17 activation) (GPR17 [1]): mM range
